Conditions: Liquid, Transpiration method

CCCCC(CC)C(=O)OCC(COC(=O)C(CC)CCCC)(COC(=O)C(CC)CCCC)COC(=O)C(CC)CCCC (stereo not given) [pentaerythritol tetra(2-ethylhexanoate)]
Conditions | vapor or sublimation pressure [kPa]
353.96 K | 1.27e-07
363.89 K | 3.67e-07
373.81 K | 1.07e-06
383.56 K | 3.37e-06
393.56 K | 8.94e-06
403.44 K | 2.37e-05
413.44 K | 5.82e-05
423.4 K | 0.000133
433.18 K | 0.000287
443.17 K | 0.000644

CCCCCCC(=O)OCC(COC(=O)CCCCCC)(COC(=O)CCCCCC)COC(=O)CCCCCC [pentaerythritol tetraheptanoate]
Conditions | vapor or sublimation pressure [kPa]
373.81 K | 2.58e-07
393.48 K | 2.61e-06
413.4 K | 2.2e-05
433.36 K | 0.000131

CCCCCCCCC(=O)OCC(COC(=O)CCCCCCCC)(COC(=O)CCCCCCCC)COC(=O)CCCCCCCC [pentaerythritol tetranonanoate]
Conditions | vapor or sublimation pressure [kPa]
394.55 K | 5.57e-08
414.72 K | 5.21e-07
435.03 K | 3.98e-06
435.11 K | 3.97e-06
455.36 K | 2.82e-05
476.47 K | 0.000174

CCCCC(=O)OCC(COC(=O)CCCC)(COC(=O)CCCC)COC(=O)CCCC [pentaerythritol tetrapentanoate]
Conditions | vapor or sublimation pressure [kPa]
334.02 K | 2.55e-07
353.94 K | 2.88e-06
373.62 K | 2.61e-05
393.34 K | 0.000166
413.08 K | 0.000935
